What follows are molecules tested against T1, mouse TRPM3α2 (mTRPM3) ion channel (Mus musculus, UniProt J9SQF3) (assay: Monitoring the TRPM3 ion channel driven Ca2+ uptake (Fluo-4 AM assay)). Conditions: TRPM3 overexpressing flip-in HEK293 cells, channel stimulated with Pregnenolone sulfate (PS) 50 μM.
T1 construct: expressed in transfected cells; host or cells: flip-in HEK293
Type: cell-based
Procedure: Monitoring the TRPM3 ion channel driven Ca^2+ uptake.
In order to monitor the inhibition of the mouse TRPM3α2 (mTRPM3) ion channel by the compounds of the invention, a cellular system making use of an mTRPM3alpha2 or hTRPM3 overexpressing cell line (flip-in HEK293) was used. The TRPM3 channel was stimulated/opened with Pregnenolone sulfate (PS) (50 μM) which results in Ca^2+ influx.
For mTRPM3, the intracellular Ca^2+ was measured with a Calcium responsive dye, Fluor-4 AM ester (Invitrogen). Cells were cultured until a confluence of 80-90%, washed with Versene (Invitrogen) and detached from the surface by a short incubation with 0.05% Trypsin (Invitrogen). The trypsination process was stopped by the addition of complete cell culture medium (DMEM, glutamax,10% FCS,NEAA,Pen-Strep). Cells were collected and resuspended in Krebs buffer without Calcium at RT.
Prior the cell seeding (±2000 cells/well into a black, 384 well plate (Greiner)) the diluted compound was added in the assay plate, together with the PS dissolved in Krebs buffer containing Calcium. […] Directly after cell addition the plates were read on an Envision fluorescence reader (Perkin Elmer) by an Excitation of 485 nm and emission at 535 nm.
Channel inhibition was calculated compared to a non-PS stimulated control versus a condition stimulated with PS (50 μM) with vehicle. The ability of the compounds of the invention to inhibit this activity was determined as: Percentage inhibition=[1−((RFU determined for sample with test compound present−RFU determined for sample with positive control inhibitor) divided by (RFU determined in the presence of vehicle−RFU determined for sample with positive control inhibitor))]*100.
The activities of the Example compounds tested are depicted in the table below. The activity ranges A, B and C refer to IC50 values in the Fluo-4 AM assay as follows: “A”: IC50<1 μM; “B”: 1 μM≤IC50≤20 μM and “C”: IC50>20 μM

T1 sequence (J9SQF3 1-1709 isoform J9SQF3-12): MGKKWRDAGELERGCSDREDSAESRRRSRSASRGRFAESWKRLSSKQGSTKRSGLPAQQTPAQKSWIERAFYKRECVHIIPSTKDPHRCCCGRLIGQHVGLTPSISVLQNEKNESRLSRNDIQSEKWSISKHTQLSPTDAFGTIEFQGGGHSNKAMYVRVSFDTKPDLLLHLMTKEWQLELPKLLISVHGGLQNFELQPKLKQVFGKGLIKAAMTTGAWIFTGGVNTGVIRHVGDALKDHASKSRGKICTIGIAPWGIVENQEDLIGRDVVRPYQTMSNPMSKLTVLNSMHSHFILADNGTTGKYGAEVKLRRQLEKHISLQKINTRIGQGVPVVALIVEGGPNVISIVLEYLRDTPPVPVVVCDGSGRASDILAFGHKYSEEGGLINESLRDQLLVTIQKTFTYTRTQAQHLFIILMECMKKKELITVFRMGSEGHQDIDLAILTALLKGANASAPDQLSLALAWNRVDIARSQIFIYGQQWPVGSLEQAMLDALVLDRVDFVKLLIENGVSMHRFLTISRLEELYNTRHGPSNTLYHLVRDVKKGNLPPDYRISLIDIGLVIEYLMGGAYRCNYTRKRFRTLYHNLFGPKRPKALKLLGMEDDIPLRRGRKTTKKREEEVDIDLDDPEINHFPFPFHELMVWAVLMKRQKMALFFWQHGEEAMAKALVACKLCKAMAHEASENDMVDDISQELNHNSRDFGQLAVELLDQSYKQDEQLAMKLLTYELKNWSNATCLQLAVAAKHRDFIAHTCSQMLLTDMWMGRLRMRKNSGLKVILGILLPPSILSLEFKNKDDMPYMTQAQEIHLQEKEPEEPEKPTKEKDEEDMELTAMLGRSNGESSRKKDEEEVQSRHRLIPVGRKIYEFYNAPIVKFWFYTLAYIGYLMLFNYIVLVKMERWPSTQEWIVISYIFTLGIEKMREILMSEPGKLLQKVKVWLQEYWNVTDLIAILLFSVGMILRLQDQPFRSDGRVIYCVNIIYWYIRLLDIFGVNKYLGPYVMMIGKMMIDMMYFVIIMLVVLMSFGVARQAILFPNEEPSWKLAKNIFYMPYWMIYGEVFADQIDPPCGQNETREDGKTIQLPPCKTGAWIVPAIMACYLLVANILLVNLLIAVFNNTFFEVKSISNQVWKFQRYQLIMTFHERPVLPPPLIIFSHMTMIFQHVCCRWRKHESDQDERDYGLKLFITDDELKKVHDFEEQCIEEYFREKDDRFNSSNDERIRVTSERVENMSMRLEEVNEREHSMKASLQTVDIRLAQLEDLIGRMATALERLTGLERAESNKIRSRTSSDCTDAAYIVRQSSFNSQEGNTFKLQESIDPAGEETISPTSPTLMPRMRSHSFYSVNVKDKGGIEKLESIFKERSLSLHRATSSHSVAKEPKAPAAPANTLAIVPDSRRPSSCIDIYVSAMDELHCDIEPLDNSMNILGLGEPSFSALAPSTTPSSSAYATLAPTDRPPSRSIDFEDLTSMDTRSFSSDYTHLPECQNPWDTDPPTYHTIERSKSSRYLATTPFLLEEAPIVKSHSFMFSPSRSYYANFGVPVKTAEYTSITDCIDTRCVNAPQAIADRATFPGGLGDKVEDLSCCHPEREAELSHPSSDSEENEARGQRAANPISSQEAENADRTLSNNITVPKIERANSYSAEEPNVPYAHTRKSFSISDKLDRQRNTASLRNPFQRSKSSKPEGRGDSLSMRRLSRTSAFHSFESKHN

| IC50 [nM] | Compound |
| --- | --- |
| < 1000 | Cc1sc2ccc(OCc3ccccc3)cc2c1C(=O)NC1CCOC1 (stereo not shown) [Cpd 096, 5-(benzyloxy)-2-methyl-N-(oxolan-3-yl)-1-benzothiophene-3-carboxamide] |
| > 20000 | CCOC(=O)c1c(C)sc2ccc(OC)cc12 [Cpd 110, ethyl 5-methoxy-2-methyl-1-benzothiophene-3-carboxylate] |
| 1000 to 20000 | COc1ncccc1COc1ccc2sc(C)c(C(=O)NC3(CO)CC3)c2c1 [Cpd 142, N-[1-(hydroxymethyl)cyclopropyl]-5-[(2-methoxypyridin-3-yl)methoxy]-2-methyl-1-benzothiophene-3-carboxamide] |
| < 1000 | Cc1sc2ccc(OCc3ccccc3F)cc2c1C(=O)NC1(C(N)=O)COC1 [Cpd 087, 3-{5-[(2-fluorophenyl)methoxy]-2-methyl-1-benzothiophene-3-amido}oxetane-3-carboxamide] |
| < 1000 | Cc1ncsc1COc1ccc2sc(C)c(C(=O)N[C@@H](CO)C(N)=O)c2c1 [Cpd 027, (2S)-3-hydroxy-2-({2-methyl-5-[(4-methyl-1,3-thiazol-5-yl)methoxy]-1-benzothiophen-3-yl}formamido)propanamide] |
| < 1000 | Cc1sc2ccc(OCc3ccccc3F)cc2c1C(=O)NC1(CO)CCC1 [Cpd 077, 5-[(2-fluorophenyl)methoxy]-N-[1-(hydroxymethyl)cyclobutyl]-2-methyl-1-benzothiophene-3-carboxamide] |
| > 20000 | Cc1sc2ccc(OCC3CCOCC3)cc2c1C(=O)NC(C)(CO)C(N)=O (single isomer, unassigned) [Cpd 067 - En1, 3-hydroxy-2-methyl-2-({2-methyl-5-[(oxan-4-yl)methoxy]-1-benzothiophen-3-yl}formamido)propanamide] |
| < 1000 | Cc1sc2ccc(OCc3cccnc3C(F)(F)F)cc2c1C(=O)NC1CCOC1 (stereo not shown) [Cpd 097, 2-methyl-N-(oxolan-3-yl)-5-{[2-(trifluoromethyl)pyridin-3-yl]methoxy}-1-benzothiophene-3-carboxamide] |
| < 1000 | Cc1sc2ccc(OCc3cccnc3C(F)(F)F)cc2c1C(=O)NC1CN(C)CC1(F)F (stereo not shown) [Cpd 121, N-(4,4-difluoro-1-methylpyrrolidin-3-yl)-2-methyl-5-{[2-(trifluoromethyl)pyridin-3-yl]methoxy}-1-benzothiophene-3-carboxamide] |
| < 1000 | Cc1ncsc1COc1ccc2sc(C)c(C(=O)NC3(CO)CCOCC3)c2c1 [Cpd 036, N-[4-(hydroxymethyl)oxan-4-yl]-2-methyl-5-[(4-methyl-1,3-thiazol-5-yl)methoxy]-1-benzothiophene-3-carboxamide] |
| < 1000 | Cc1sc2ccc(OCc3ccccc3)cc2c1C(=O)Nc1ccn(C)n1 [Cpd 091, 5-(benzyloxy)-2-methyl-N-(1-methyl-1H-pyrazol-3-yl)-1-benzothiophene-3-carboxamide] |
| < 1000 | Cc1ncc(COc2ccc3sc(C)c(C(=O)NC4(CO)CCC4)c3c2)s1 [Cpd 023, N-[1-(hydroxymethyl)cyclobutyl]-2-methyl-5-[(2-methyl-1,3-thiazol-5-yl)methoxy]-1-benzothiophene-3-carboxamide] |
| < 1000 | Cc1ncsc1COc1ccc2sc(C)c(C(=O)NC3CCNCC3(F)F)c2c1 (single isomer, unassigned) [Cpd 042 - En2, N-(3,3-difluoropiperidin-4-yl)-2-methyl-5-[(4-methyl-1,3-thiazol-5-yl)methoxy]-1-benzothiophene-3-carboxamide] |
| 1000 to 20000 | Cc1ncsc1COc1ccc2sc(C)c(C(=O)NCCN3CCOC3=O)c2c1 [Cpd 048, 2-methyl-5-[(4-methyl-1,3-thiazol-5-yl)methoxy]-N-[2-(2-oxo-1,3-oxazolidin-3-yl)ethyl]-1-benzothiophene-3-carboxamide] |
| < 1000 | Cc1sc2ccc(OCc3ccccn3)cc2c1C(=O)NC(C)(C)C(N)=O [Cpd 064, 2-methyl-2-({2-methyl-5-[(pyridin-2-yl)methoxy]-1-benzothiophen-3-yl}formamido)propanamide] |
| > 20000 | CNC(=O)c1c(C)sc2ccc(OCc3ccccc3)cc12 [Cpd 134, 5-(benzyloxy)-N,2-dimethyl-1-benzothiophene-3-carboxamide] |
| < 1000 | Cc1ncsc1COc1ccc2sc(C)c(C(=O)NC3(CO)CC3)c2c1 [Cpd 034, N-[1-(hydroxymethyl)cyclopropyl]-2-methyl-5-[(4-methyl-1,3-thiazol-5-yl)methoxy]-1-benzothiophene-3-carboxamide] |
| > 20000 | Cc1sc2ccc(OCc3cccnc3O)cc2c1C(=O)NC1(C(=O)O)CCOCC1 [Cpd 072, 4-{5-[(2-hydroxypyridin-3-yl)methoxy]-2-methyl-1-benzothiophene-3-amido}oxane-4-carboxylic acid] |
| < 1000 | Cc1sc2ccc(OCc3cccnc3C(F)(F)F)cc2c1C(=O)NCC(C)(C)O [Cpd 101, N-(2-hydroxy-2-methylpropyl)-2-methyl-5-{[2-(trifluoromethyl)pyridin-3-yl]methoxy}-1-benzothiophene-3-carboxamide] |
| < 1000 | Cc1sc2ccc(OCc3ccccn3)cc2c1C(=O)N[C@H](C)C(N)=O [Cpd 003, (2R)-2-({2-methyl-5-[(pyridin-2-yl)methoxy]-1-benzothiophen-3-yl}formamido)propanamide] |
| < 1000 | Cc1sc2ccc(OCc3ccccn3)cc2c1C(=O)NC1(CO)COC1 [Cpd 086, N-[3-(hydroxymethyl)oxetan-3-yl]-2-methyl-5-[(pyridin-2-yl)methoxy]-1-benzothiophene-3-carboxamide] |
| 1000 to 20000 | Cc1sc2ccc(OCc3cccnc3O)cc2c1C(=O)N[C@@H](CO)C(N)=O [Cpd 054, (2S)-3-hydroxy-2-({5-[(2-hydroxypyridin-3-yl)methoxy]-2-methyl-1-benzothiophen-3-yl}formamido)propanamide] |
| > 20000 | O=C(NCCN1CCOC1=O)c1c(C(F)F)sc2ccc(OCc3ccccc3)cc12 [Cpd 149, 5-(benzyloxy)-2-(difluoromethyl)-N-[2-(2-oxo-1,3-oxazolidin-3-yl)ethyl]-1-benzothiophene-3-carboxamide] |
| < 1000 | Cc1ncsc1COc1ccc2sc(C)c(C(=O)Nc3ccn(C)n3)c2c1 [Cpd 040, 2-methyl-5-[(4-methyl-1,3-thiazol-5-yl)methoxy]-N-(1-methyl-1H-pyrazol-3-yl)-1-benzothiophene-3-carboxamide] |
| < 1000 | Cc1sc2ccc(OCc3cccnc3C(F)(F)F)cc2c1C(=O)Nc1ccn(C)n1 [Cpd 092, 2-methyl-N-(1-methyl-1H-pyrazol-3-yl)-5-{[2-(trifluoromethyl)pyridin-3-yl]methoxy}-1-benzothiophene-3-carboxamide] |
| 1000 to 20000 | Cc1sc2ccc(OCc3ccccc3)cc2c1C(=O)NC1(CO)CCOCC1 [Cpd 080, 5-(benzyloxy)-N-[4-(hydroxymethyl)oxan-4-yl]-2-methyl-1-benzothiophene-3-carboxamide] |
| > 20000 | Cc1sc2ccc(OCC3COC3)cc2c1C(=O)NC(C)(CO)C(N)=O (single isomer, unassigned) [Cpd 068 - En1, 3-hydroxy-2-methyl-2-({2-methyl-5-[(oxetan-3-yl)methoxy]-1-benzothiophen-3-yl}formamido)propanamide] |
| > 20000 | O=C(NCc1cccc(O)n1)c1c(C(F)F)sc2ccc(OCc3ccccc3)cc12 [Cpd 151, 5-(benzyloxy)-2-(difluoromethyl)-N-[(6-hydroxypyridin-2-yl)methyl]-1-benzothiophene-3-carboxamide] |
